Source: PubChem BioAssay AID256 (DTP/NCI, 2004)
Where “and” joins values, the source holds several entries; their conditions need not be identical. Identical values can stand only once. Inconclusive results and toxic doses are left out.

Tested on: CD2F1 mice, L1210 leukemia ip, survival T/C
Test: NCI In Vivo Anticancer Drug Screen. Data for tumor model L1210 Leukemia (intraperitoneal) in CD2F1 (CDF1) mice
Conditions: endpoint: mean survival time, higher = longer survival
Summary of the method: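 Antitumor effect is scored in animals hosting a serially transplanted tumor. Values compare compound-dosed animals against vehicle-only controls as a simple quotient.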

[1] = dose: 100.0 mg/kg/injection, schedule: Q01DX001 (ip), vehicle: saline
[2] = dose: 200.0 mg/kg/injection, schedule: Q01DX001 (ip), vehicle: saline
[3] = dose: 400.0 mg/kg/injection, schedule: Q01DX001 (ip), vehicle: saline
[4] = dose: 50.0 mg/kg/injection, schedule: Q01DX009 (ip), vehicle: saline with Tween-80
[5] = dose: 100.0 mg/kg/injection, schedule: Q01DX009 (ip), vehicle: saline with Tween-80
[6] = dose: 100.0 mg/kg/injection, schedule: Q04DX003 (ip), vehicle: saline with Tween-80
[7] = dose: 200.0 mg/kg/injection, schedule: Q01DX009 (ip), vehicle: saline with Tween-80
[8] = dose: 200.0 mg/kg/injection, schedule: Q04DX003 (ip), vehicle: saline with Tween-80
[9] = dose: 100.0 mg/kg/injection, schedule: Q04DX002 (ip), vehicle: saline with Tween-80
[10] = dose: 200.0 mg/kg/injection, schedule: Q04DX002 (ip), vehicle: saline with Tween-80
[11] = dose: 400.0 mg/kg/injection, schedule: Q04DX002 (ip), vehicle: saline with Tween-80
[12] = dose: 12.5 mg/kg/injection, schedule: Q01DX009 (ip), vehicle: saline with Tween-80
[13] = dose: 25.0 mg/kg/injection, schedule: Q01DX009 (ip), vehicle: saline with Tween-80
[14] = dose: 100.0 mg/kg/injection, schedule: Q01DX001 (ip), vehicle: saline with Tween-80
[15] = dose: 200.0 mg/kg/injection, schedule: Q01DX001 (ip), vehicle: saline with Tween-80
[16] = dose: 400.0 mg/kg/injection, schedule: Q01DX001 (ip), vehicle: saline with Tween-80

CC(=O)NNC(=O)c1ccccc1N=NN(C)C
T/C (dose: 18.75 mg/kg/injection, schedule: Q01DX009 (ip), vehicle: Klucel (hydroxypropylcellulose) (HPC)): 94 % of control and 100 % of control | T/C (dose: 37.5 mg/kg/injection, schedule: Q01DX009 (ip), vehicle: Klucel (hydroxypropylcellulose) (HPC)): 102 % of control and 111 % of control | T/C (dose: 75.0 mg/kg/injection, schedule: Q01DX009 (ip), vehicle: Klucel (hydroxypropylcellulose) (HPC)): 109 % of control | T/C (dose: 150.0 mg/kg/injection, schedule: Q01DX009 (ip), vehicle: Klucel (hydroxypropylcellulose) (HPC)): 105 % of control and 111 % of control

COC1OCC(C(C)=O)C(O)C1O (configuration not stated)
T/C [1]: 101 % of control | T/C [2]: 96 % of control | T/C [3]: 95 % of control

O=C(O)c1ccccc1SSc1ccccc1C(=O)O
T/C [4]: 89 % of control | T/C [5]: 101 % of control | T/C [6]: 102 % of control | T/C [7]: 95 % of control | T/C [8]: 104 % of control

NC1=Nc2ccccc2CS1
T/C (dose: 9.4 mg/kg/injection, schedule: Q01DX009 (ip), vehicle: saline): 95 % of control | T/C (dose: 18.8 mg/kg/injection, schedule: Q01DX009 (ip), vehicle: saline): 107 % of control | T/C (dose: 37.5 mg/kg/injection, schedule: Q01DX009 (ip), vehicle: saline): 89 % of control | T/C (dose: 75.0 mg/kg/injection, schedule: Q01DX001 (ip), vehicle: saline): 98 % of control

Cc1cc(S(=O)(=O)c2ccc(O)c(C)c2)ccc1O
T/C [9]: 103 % of control | T/C [10]: 100 % of control | T/C [11]: 97 % of control

Cc1ccc(Cl)cc1NC(=O)c1ccc([N+](=O)[O-])cc1
T/C [6]: 90 % of control

CC(=O)C(C)(NCc1ccccc1)c1ccccc1 (configuration not stated)
T/C (dose: 50.0 mg/kg/injection, schedule: Q01DX009 (ip), vehicle: Klucel (hydroxypropylcellulose) (HPC)): 97 % of control | T/C (dose: 100.0 mg/kg/injection, schedule: Q01DX001 (ip), vehicle: other): 100 % of control | T/C [1]: 101 % of control | T/C (dose: 100.0 mg/kg/injection, schedule: Q01DX009 (ip), vehicle: Klucel (hydroxypropylcellulose) (HPC)): 100 % of control | T/C (dose: 200.0 mg/kg/injection, schedule: Q01DX001 (ip), vehicle: other): 92 % of control | T/C [2]: 95 % of control | T/C (dose: 200.0 mg/kg/injection, schedule: Q01DX009 (ip), vehicle: Klucel (hydroxypropylcellulose) (HPC)): 100 % of control | T/C (dose: 400.0 mg/kg/injection, schedule: Q01DX001 (ip), vehicle: other): 107 % of control | T/C [3]: 93 % of control | T/C (dose: 400.0 mg/kg/injection, schedule: Q01DX009 (ip), vehicle: Klucel (hydroxypropylcellulose) (HPC)): 106 % of control

CC(C)(C)OC(=O)C12CCCC(C(=O)OC(C)(C)C)(OO1)O2
T/C [1]: 95 % of control | T/C [2]: 95 % of control | T/C [3]: 101 % of control

N#CSCc1ccccc1
T/C [12]: 100 % of control

CC(C)(O)CN
T/C [13]: 95 % of control | T/C [4]: 98 % of control | T/C [5]: 91 % of control

S=c1[nH]cc[nH]1
T/C [1]: 103 % of control | T/C [2]: 100 % of control | T/C [3]: 96 % of control

COC(=O)c1c(C)c(-c2ccccc2)c(-c2ccccc2)c(C)c1C(=O)OC
T/C [9]: 98 % of control | T/C [10]: 95 % of control | T/C [11]: 95 % of control

CC(=O)NCC(O)C(O)C(O)C(O)COC(=O)c1ccccc1 (configuration not stated)
T/C [14]: 95 % of control | T/C [15]: 95 % of control | T/C [16]: 96 % of control

CN(Cc1cnc2nc(N[Si](C)(C)C)nc(N[Si](C)(C)C)c2n1)c1ccc(C(=O)NC(CCC(=O)O[Si](C)(C)C)C(=O)O[Si](C)(C)C)cc1 (configuration not stated)
T/C (dose: 1.25 mg/kg/injection, schedule: Q01DX009 (ip), vehicle: saline): 159 % of control | T/C (dose: 1.9 mg/kg/injection, schedule: Q04DX003 (ip), vehicle: saline): 117 % of control | T/C (dose: 2.5 mg/kg/injection, schedule: Q01DX009 (ip), vehicle: saline): 172 % of control | T/C (dose: 7.5 mg/kg/injection, schedule: Q04DX003 (ip), vehicle: saline): 159 % of control | T/C (dose: 15.0 mg/kg/injection, schedule: Q04DX003 (ip), vehicle: saline): 178 % of control | T/C (dose: 20.0 mg/kg/injection, schedule: Q01DX009 (ip), vehicle: saline): 103 % of control | T/C (dose: 30.0 mg/kg/injection, schedule: Q04DX003 (ip), vehicle: saline): 193 % of control | T/C (dose: 60.0 mg/kg/injection, schedule: Q04DX003 (ip), vehicle: saline): 155 % of control | T/C (dose: 120.0 mg/kg/injection, schedule: Q04DX003 (ip), vehicle: saline): 117 % of control

COc1cc([N+](=O)[O-])c2nc(/C=N/NC(N)=S)ccc2c1
T/C [1]: 89 % of control

Nc1nc(N)c(-c2cccc(Cl)c2)c(COc2ccc([N+](=O)[O-])cc2)n1
T/C [14]: 94 % of control | T/C [15]: 92 % of control | T/C [16]: 93 % of control

CCCCCCCCCCCC[n+]1cccc2ccccc21
T/C (dose: 0.35 mg/kg/injection, schedule: Q01DX009 (ip), vehicle: saline): 106 % of control | T/C (dose: 0.7 mg/kg/injection, schedule: Q01DX009 (ip), vehicle: saline): 111 % of control | T/C (dose: 1.4 mg/kg/injection, schedule: Q01DX009 (ip), vehicle: saline): 117 % of control

CC1(C(Cl)(Cl)Cl)C=CC(=O)C=C1
T/C (dose: 50.0 mg/kg/injection, schedule: Q04DX003 (ip), vehicle: saline with Tween-80): 101 % of control | T/C [6]: 101 % of control | T/C [8]: 97 % of control

CCC[CH2][Sn]1([CH2]CCC)[O]C2C(CO)OC(n3cnc4c(N)ncnc43)C2[O]1 (configuration not stated)
T/C (dose: 0.2 mg/kg/injection, schedule: Q01DX005 (ip), vehicle: other): 107 % of control | T/C (dose: 0.39 mg/kg/injection, schedule: Q01DX005 (ip), vehicle: other): 104 % of control | T/C (dose: 0.78 mg/kg/injection, schedule: Q01DX005 (ip), vehicle: other): 104 % of control | T/C (dose: 1.56 mg/kg/injection, schedule: Q01DX005 (ip), vehicle: other): 102 % of control and 107 % of control | T/C (dose: 3.13 mg/kg/injection, schedule: Q01DX005 (ip), vehicle: other): 103 % of control and 110 % of control

O=C1NC(=O)C(c2ccccc2)(c2ccc(O)cc2)N1 (configuration not stated)
T/C [5]: 105 % of control | T/C (dose: 100.0 mg/kg/injection, schedule: Q04DX003 (ip), vehicle: saline sonified): 95 % of control | T/C [7]: 95 % of control | T/C (dose: 200.0 mg/kg/injection, schedule: Q04DX003 (ip), vehicle: saline sonified): 93 % of control | T/C (dose: 400.0 mg/kg/injection, schedule: Q01DX009 (ip), vehicle: saline with Tween-80): 95 % of control | T/C (dose: 400.0 mg/kg/injection, schedule: Q04DX003 (ip), vehicle: saline sonified): 93 % of control

O=C(O)/C=C\SCCCC(=O)O
T/C [14]: 94 % of control | T/C [15]: 111 % of control | T/C [16]: 103 % of control

O=P1(N(CCCl)CCCl)NCCCO1.[Cl][Sb]([Cl])[Cl] (configuration not stated)
T/C (dose: 31.25 mg/kg/injection, schedule: Q01DX001 (ip), vehicle: olive oil, sesame oil, peanut oil): 109 % of control | T/C (dose: 62.5 mg/kg/injection, schedule: Q01DX001 (ip), vehicle: olive oil, sesame oil, peanut oil): 113 % of control | T/C (dose: 125.0 mg/kg/injection, schedule: Q01DX001 (ip), vehicle: olive oil, sesame oil, peanut oil): 109 % of control

Cc1ccc2cccc(CC(=O)O)c2c1
T/C [9]: 102 % of control | T/C [10]: 98 % of control | T/C [11]: 91 % of control

c1cc2c(cc1-c1nnc(-c3ccc4c(c3)OCO4)nn1)OCO2
T/C (dose: 12.5 mg/kg/injection, schedule: Q01DX001 (ip), vehicle: saline with Tween-80): 91 % of control | T/C [12]: 94 % of control | T/C (dose: 25.0 mg/kg/injection, schedule: Q01DX001 (ip), vehicle: saline with Tween-80): 90 % of control | T/C [13]: 96 % of control | T/C (dose: 50.0 mg/kg/injection, schedule: Q01DX001 (ip), vehicle: saline with Tween-80): 95 % of control | T/C [4]: 88 % of control

Nc1cccc2cn[nH]c12
T/C (dose: 100.0 mg/kg/injection, schedule: Q04DX003 (ip), vehicle: other): 98 % of control | T/C (dose: 200.0 mg/kg/injection, schedule: Q04DX003 (ip), vehicle: other): 96 % of control | T/C (dose: 400.0 mg/kg/injection, schedule: Q04DX003 (ip), vehicle: other): 101 % of control

C=CCN(CC#N)CC#N
T/C (dose: 2.5 mg/kg/injection, schedule: Q04DX003 (ip), vehicle: Klucel (hydroxypropylcellulose) (HPC)): 106 % of control | T/C (dose: 5.0 mg/kg/injection, schedule: Q04DX003 (ip), vehicle: Klucel (hydroxypropylcellulose) (HPC)): 97 % of control | T/C (dose: 10.0 mg/kg/injection, schedule: Q04DX003 (ip), vehicle: Klucel (hydroxypropylcellulose) (HPC)): 105 % of control
